Assay results published in ChEMBL document CHEMBL1201862, “PubChem BioAssay data set” (2004).
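Briefly, cells in 96-well plates were exposed to five compound concentrations for 48 h, and endpoints were estimated by linear interpolation. GI50 marks 50% less growth.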 Activity calls are given as the source filed them. Rule as the data show it: active = GI50 up to about 1.1 µM and inactive = higher.

How the values were obtained:
Assay in all cases: NCI tumour cell line growth inhibition, 48 h
786-0 = test system: 786-0
CAKI-1 = test system: CAKI-1
CCRF-CEM = test system: CCRF-CEM
HL-60 = test system: HL-60
HOP-62 = test system: HOP-62
HT-29 = test system: HT-29
K562 = test system: K562
M14 = test system: M14
MOLT-4 = test system: MOLT-4
NCI/ADR-RES = test system: NCI/ADR-RES
OVCAR-3 = test system: OVCAR-3
RXF 393 = test system: RXF 393
SF-268 = test system: SF-268
SF-539 = test system: SF-539
SK-MEL-2 = test system: SK-MEL-2
SK-MEL-5 = test system: SK-MEL-5
SK-OV-3 = test system: SK-OV-3
SNB-19 = test system: SNB-19
TK-10 = test system: TK-10
UACC-257 = test system: UACC-257

Compound | GI50 (786-0) | GI50 (CAKI-1) | GI50 (CCRF-CEM) | GI50 (HL-60) | GI50 (HOP-62) | GI50 (HT-29) | GI50 (K562) | GI50 (M14) | GI50 (MOLT-4) | GI50 (NCI/ADR-RES) | GI50 (OVCAR-3) | GI50 (RXF 393) | GI50 (SF-268) | GI50 (SF-539) | GI50 (SK-MEL-2) | GI50 (SK-MEL-5) | GI50 (SK-OV-3) | GI50 (SNB-19) | GI50 (TK-10) | GI50 (UACC-257)
CCCNC1=C2CC(C)CC(OC)[C@@H](O)[C@H](C)/C=C(\C)C(OC(N)=O)C(OC)/C=C\C=C(/C)C(=O)NC(=CC1=O)C2=O (stereo not given in full) | 0.443 µM (active) | 11.5 µM (inactive) | 0.273 µM (active) | 0.214 µM (active) | 0.245 µM (active) | 0.0101 µM (active) | 0.141 µM (active) | 0.561 µM (active) | 0.332 µM (active) | 3.31 µM (inactive) | 1.65 µM (inactive) | 1.56 µM (inactive) | 0.524 µM (active) | 0.698 µM (active) | 0.129 µM (active) | 0.0637 µM (active) | 0.101 µM (active) | 0.637 µM (active) | 0.201 µM (active) | 0.0975 µM (active)
COc1cc2c(cc1OCCCCCOc1cc3c(cc1OC)C(=O)N1CCC[C@H]1CN3)N=C[C@@H]1CCCN1C2=O | 3.94 µM (inactive) | 9.48 µM (inactive) | 0.233 µM (active) | 4.3 µM (inactive) | 2.15 µM (inactive) | 5.04 µM (inactive) | 3.49 µM (inactive) | 2.77 µM (inactive) | 2.4 µM (inactive) | 23.4 µM (inactive) | 12.6 µM (inactive) | 17 µM (inactive) | 3.57 µM (inactive) | 3.18 µM (inactive) | 3.27 µM (inactive) | 2.79 µM (inactive) | 30.5 µM (inactive) | 20 µM (inactive) | 19.5 µM (inactive) | 12.3 µM (inactive)
N#Cc1c(Cl)nc2ccccc2c1N=[N+]=[N-] | 2.8 µM (inactive) | 1.68 µM (inactive) | 1.41 µM (inactive) | 1.8 µM (inactive) | 17.3 µM (inactive) | 1.92 µM (inactive) | 0.705 µM (active) | 2.84 µM (inactive) | 1.08 µM (active) | 9.33 µM (inactive) | 1.78 µM (inactive) | 1.44 µM (inactive) | 3.24 µM (inactive) | 2.15 µM (inactive) | 1.91 µM (inactive) | 14.2 µM (inactive) | 15.5 µM (inactive) | 14.8 µM (inactive) | 4.82 µM (inactive) | 12.7 µM (inactive)
Cc1c(C)n(-c2ccccc2)c2nc([S+](C)[O-])nc([S+](C)[O-])c12 (stereo not given) | 2.56 µM (inactive) | 1.34 µM (inactive) | 1.55 µM (inactive) | 1.38 µM (inactive) | 18.4 µM (inactive) | 6.05 µM (inactive) | 2.09 µM (inactive) | 2.21 µM (inactive) | 2.33 µM (inactive) | 22.9 µM (inactive) | 2.61 µM (inactive) | 2.92 µM (inactive) | 7.14 µM (inactive) | 3.85 µM (inactive) | 4.68 µM (inactive) | 2.35 µM (inactive) | 18.5 µM (inactive) | 17.1 µM (inactive) | 1.52 µM (inactive) | 11.8 µM (inactive)
N#C[BH2-][n+]1ccc(C(=O)NNCc2cccc(C(F)(F)F)c2)cc1 | 4.83 µM (inactive) | 37.9 µM (inactive) | 28.4 µM (inactive) | 23.4 µM (inactive) | 12.8 µM (inactive) | 6.01 µM (inactive) | 20.5 µM (inactive) | 8.75 µM (inactive) | 17.6 µM (inactive) | 11.6 µM (inactive) | 10.9 µM (inactive) | 8.22 µM (inactive) | 4.82 µM (inactive) | 4.08 µM (inactive) | 12.1 µM (inactive) | 1.83 µM (inactive) | 8.93 µM (inactive) | 13.6 µM (inactive) | 27.3 µM (inactive) | 4.92 µM (inactive)
CCOC(=O)c1sc2ncnc(N)c2c1C | 53.8 µM (inactive) | 35.9 µM (inactive) | 62.1 µM (inactive) | > 100 µM (inactive) | 80 µM (inactive) | 18.2 µM (inactive) | > 100 µM (inactive) | 65 µM (inactive) | 65.2 µM (inactive) | > 100 µM (inactive) | > 100 µM (inactive) | 22.8 µM (inactive) | 68.5 µM (inactive) | 75.5 µM (inactive) | > 100 µM (inactive) | 36.8 µM (inactive) | > 100 µM (inactive) | 63.7 µM (inactive) | 34 µM (inactive) | 34.4 µM (inactive)
C=C1[C@H](OCC(C)C)[C@@H](OC(=O)C(C)CC)[C@@H](O)C(C)(C)/C=C/[C@H](C)C(=O)[C@@]2(O)C[C@H](C)[C@H](O)[C@@H]2[C@H]1OC(=O)C(C)CC (stereo not given in full) | 4.1 µM (inactive) | 3.32 µM (inactive) | 0.564 µM (active) | 1.05 µM (active) | 2.17 µM (inactive) | 2.56 µM (inactive) | 0.991 µM (active) | 2.15 µM (inactive) | 2 µM (inactive) | 6.82 µM (inactive) | 4.94 µM (inactive) | 6.14 µM (inactive) | 4.78 µM (inactive) | 3.05 µM (inactive) | 4.99 µM (inactive) | 2.23 µM (inactive) | 19.7 µM (inactive) | 14.5 µM (inactive) | 4 µM (inactive) | 5.22 µM (inactive)
